Entries after “also recorded” stand apart in the source; their conditions may differ.
What was measured:
[1] = system: purified wt (wild-type) opsin; assay: 500 nm absorbing pigment formation on addition of compound alone to purified opsin; assay type: biochemical; settings: compound added to purified WT opsin without 11-cis-retinal
[2] = system: purified wild-type (WT) opsin; assay: Opsin regeneration: pigment formation of purified WT opsin with 11-cis-retinal in the presence of compound; assay type: biochemical; settings: for inhibition of pigment formation / binding of 11-cis-retinal to opsin: in vitro
P23H opsin = assay: P23H yield in stable cells expressing opsin treated with compound; assay type: cell-based
Description: Stable cell lines expressing opsin protein were generated using the Flp-In T-Rex system. The stable cells were grown in DMEM high glucose media supplemented with 10% (v/v) fetal bovine serum, antibiotic/antimycotic solution, […] blasticidin and hygromycin at 37° C. in presence of 5% CO2. For all the experiments the cells were allowed to reach confluence and were induced to produce opsin with 1 μg/ml tetracycline after change of media and then compounds were added. The plates were incubated for 48 hours after which the cells were harvested.
Proteins were separated on SDS-PAGE gels and western blotted as described in Noorwez et al. (2004).

CC(=O)c1c(C)n[nH]c1C [Compound 1, 1-(3,5-dimethyl-1H-pyrazol-4-yl)ethanone]
formation of 500 nm absorbing pigment by the compound with opsin ([1]; listed as SN10011): No pigment was formed; also recorded: no 500 nm absorbing pigment was generated | inhibition of pigment formation of WT opsin with 11-cis-retinal ([2]; 2 mM and 5 mM concentrations): inhibited | inhibition of pigment formation / binding of 11-cis-retinal to opsin ([2]; listed as SN 10011): inhibits the binding of 11-cis-retinal to opsin in vitro | inhibition of pigment formation / binding of 11-cis-retinal to opsin ([2]; listed as SN10011): reversibly inhibits binding of 11-cis-retinal; also recorded: significant effect on inhibition of pigment formation | % Increase in P23H Yield (P23H opsin; Table 1): 31% | % Increase in P23H Yield (P23H opsin; Table 2, with spread): 30 ± 5%

N#Cc1cn(Cc2ccco2)c(=O)[nH]c1=O [Compound 2, 1-furan-2-ylmethyl-2,4-dioxo-1,2,3,4-tetrahydro-pyrimidine-5-carbonitrile]
% Increase in P23H Yield (P23H opsin; Table 1): 43% | % Increase in P23H Yield (P23H opsin; Table 2, with spread): 40 ± 7%

O=[PH](O)c1ccccc1 [Compound 3, phenyl-phosphinic acid]
% Increase in P23H Yield (P23H opsin; Table 1): 32% | % Increase in P23H Yield (P23H opsin; Table 2, with spread): 40 ± 3%

Cc1cc([N+](=O)[O-])ccn1 [Compound 4, 2-methyl-4-nitro-pyridine]
% Increase in P23H Yield (P23H opsin; Table 1): 24% | % Increase in P23H Yield (P23H opsin; Table 2, with spread): 25 ± 8%

O=C1NC(CCO)C(=O)NC1CCO (stereo not shown) [Compound 5, 3,6-bis-(2-hydroxyethy)-piperazine-2,5-dione]
% Increase in P23H Yield (P23H opsin; Table 1): 15% | % Increase in P23H Yield (P23H opsin; Table 2, with spread): 30 ± 10%

CC(C)N(CC#N)C(C)C [Compound 6, diisopropylaminoacetonitrile]
% Increase in P23H Yield (P23H opsin; Table 1): 28% | % Increase in P23H Yield (P23H opsin; Table 2, with spread): 25 ± 3%

N#Cc1ccc2c(c1)OCO2 [Compound 27009, 3,4-Methylenedioxybenzonitrile]
% Increase in P23H Yield (P23H opsin; Table 2, with spread): 20 ± 5%

Cn1cc(C(N)=O)ccc1=N [Compound 66688, 6-imino-1-methyl-1,6-dihydro-3-pyridinecarboxamine]
% Increase in P23H Yield (P23H opsin; Table 2, with spread): 40 ± 9%

Nn1nnc2ccccc21 [Compound 114498, 1H-1,2,3-benzotriazol-1-amine]
% Increase in P23H Yield (P23H opsin; Table 2, with spread): 30 ± 6%

Oc1ccccc1C=Nn1cnnc1 [Compound 121968, 4-Salicylideneamino-1,2,4-triazol]
% Increase in P23H Yield (P23H opsin; Table 2, with spread): 29 ± 5%

CC(=O)/C=C/C1=C(C)CCCC1(C)C [β-ionone, reference compound]
formation of 500 nm absorbing pigment by the compound with opsin [1]: does not form a light absorbing pigment with opsin; also recorded: does not itself form a 500 nm absorbing pigment with opsin; also recorded: no 500 nm absorbing pigment was formed | inhibition of pigment formation / binding of 11-cis-retinal to opsin [2]: inhibit binding of retinal to the site; also recorded: inhibited opsin regeneration in a dose dependent manner

Reference: patent US20100104644A1, “Compositions and Methods for Treating or Preventing Ophthalmic Disease” (University of Florida Research Foundation, Inc., priority 2006, published 2010)
